Counter-ions that a name gives are not always drawn. Like-named read-outs stand apart in the source and are kept apart here.
Assays:
[1] = Solubility in water / aqueous solution; assay type: physicochemical; conditions: for Solubility (in words): aqueous solution, free base versus tartrate acid addition salt
human BChE [2] = molecular target: T1, human BChE (Homo sapiens, UniProt P06276); conditions: human BChE freshly prepared from human plasma; see Greig et al. page 78; cited from earlier work
T1 construct: use human BChE and AChE freshly prepared from human plasma and erythrocytes, respectively; from tissue; host or cells: human plasma
T1 sequence (P06276 29-602): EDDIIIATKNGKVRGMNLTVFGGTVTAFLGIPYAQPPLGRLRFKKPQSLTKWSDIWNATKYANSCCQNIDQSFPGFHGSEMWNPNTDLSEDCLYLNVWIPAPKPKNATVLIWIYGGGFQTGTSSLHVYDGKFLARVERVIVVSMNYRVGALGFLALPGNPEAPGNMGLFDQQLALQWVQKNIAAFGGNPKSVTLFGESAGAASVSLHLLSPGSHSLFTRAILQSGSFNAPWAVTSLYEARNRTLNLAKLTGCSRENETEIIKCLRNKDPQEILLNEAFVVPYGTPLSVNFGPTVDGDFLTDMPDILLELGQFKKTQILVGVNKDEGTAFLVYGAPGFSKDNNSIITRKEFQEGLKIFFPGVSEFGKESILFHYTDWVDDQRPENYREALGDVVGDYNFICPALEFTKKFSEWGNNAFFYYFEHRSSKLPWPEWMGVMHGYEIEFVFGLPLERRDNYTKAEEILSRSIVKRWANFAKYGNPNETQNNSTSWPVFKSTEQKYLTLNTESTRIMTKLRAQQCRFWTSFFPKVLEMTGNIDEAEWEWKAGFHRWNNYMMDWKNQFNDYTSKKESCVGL

human AChE [3] = molecular target: T2, human AChE (Homo sapiens, UniProt P22303); conditions: human AChE freshly prepared from human erythrocytes; see Greig et al. page 78; cited from earlier work
T2 construct: use human BChE and AChE freshly prepared from human plasma and erythrocytes, respectively; from tissue; host or cells: human erythrocytes
T2 sequence (P22303 32-617 isoform P22303-2 limits assumed): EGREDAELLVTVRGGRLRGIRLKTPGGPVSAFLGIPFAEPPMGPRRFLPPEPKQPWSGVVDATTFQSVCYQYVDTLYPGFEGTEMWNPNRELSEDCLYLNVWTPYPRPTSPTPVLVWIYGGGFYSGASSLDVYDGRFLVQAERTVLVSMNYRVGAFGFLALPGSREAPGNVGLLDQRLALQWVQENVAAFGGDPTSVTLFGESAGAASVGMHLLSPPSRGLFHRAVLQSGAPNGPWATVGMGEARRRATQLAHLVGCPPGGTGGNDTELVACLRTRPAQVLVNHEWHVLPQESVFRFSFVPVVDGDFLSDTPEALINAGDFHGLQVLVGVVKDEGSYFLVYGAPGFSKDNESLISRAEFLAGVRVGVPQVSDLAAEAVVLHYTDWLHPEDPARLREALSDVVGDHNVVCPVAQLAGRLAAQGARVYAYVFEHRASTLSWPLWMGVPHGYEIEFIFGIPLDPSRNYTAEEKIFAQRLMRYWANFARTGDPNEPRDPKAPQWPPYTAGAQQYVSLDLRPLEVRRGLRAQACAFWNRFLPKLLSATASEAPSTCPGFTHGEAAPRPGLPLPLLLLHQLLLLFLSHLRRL

[4] = test system: aged (24-26-month-old) Fischer-344 rats; conditions: Stone 14-unit T-maze, Greig et al. 2003; cited from earlier work
human BChE [5] = molecular target: T1, human BChE; assay: Inhibition of human plasma BChE activity (IC50); assay type: biochemical; conditions: human BChE freshly prepared from human plasma
Description: (§1) Potential cholinesterase agents may be evaluated for potency in vitro by assaying its inhibitory effect on electric eel and human red blood cell ACHE and human plasma BCHE activity in cell-free extracts (See U.S. Pat. Nos. 6,495,700; 5,409,948; 5,171,750; 5,378,723; and 5,998,460). Studies also commonly utilize aged rat models to evaluate effectiveness of therapeutic drug leads in ameliorating cognitive disorders. […] (See, Greig, N. H. et al. “Butyrylcholinesterase: Its Function and Inhibition.” (ed., Giacobini, E.) Martin Dunitz, Ltd., London, 69-90, 2003, Chapter 6: Butyrylcholinesterase: its selective inhibition and relevance to Alzheimer's disease therapy at pages 80-81).
(§2) (See, Greig, N. H. et al. at page 78). These biological activity assays use human BChE and AChE freshly prepared from human plasma and erythrocytes, respectively.
(§3) These biological activity assays use human BChE and AChE freshly prepared from human plasma and erythrocytes, respectively.

human AChE [6] = molecular target: T2, human AChE; assay: Inhibition of human erythrocyte AChE activity (IC50); assay type: biochemical; conditions: human AChE freshly prepared from human erythrocytes
Description: as §1, §2, §3

[7] = test system: aged (21-22 month old) Fisher-344 rats; assay: Stone maze cognitive ability test after i.p. MHI tartrate (Example VII); assay type: in vivo, rat; conditions: 0.5 to 1.0 mg per kg intraperitoneal, daily, aged Fisher-344 rats
Experimental: (See U.S. Pat. No. 6,683,105). MHI tartrate is administered in dosages in the range of 0.5 to 1.0 mg per kg of subject body weight. This dosage is administered daily, for example, 1-3 times per day. Effectiveness of MHI tartrate is measured by testing cognitive ability before and after administration. For instance, rats may be tested using a “Stone maze” in which a maze constructed of translucent plastic containing a grid floor wired for scrambled foot shocks surrounded by opaque gray walls to minimize effects of non-MHI tartrate related variables. Rats are given 10 seconds in which to navigate the maze. […] Similar cognitive tests, for instance timed, objective memorization tests, may be used on other subjects, such as humans.

In the case of `CC(C)c1ccc(NC(=O)Oc2ccc3c(c2)C2(C)CCNC2N3)cc1` (single isomer, unassigned; (-)) [MHI (Base)], the Solubility ([1]; listed as MHI) is listed as “about 0.0005 g/ml”, the “Solubility (g per 100 ml Saturated H2O solution at room temperature)” value [1] is listed as 0.05 g g per 100 ml and the IC50 (human BChE [2]) is listed as 0.001 ± 0.0001 µM. For the same compound, the IC50 (human AChE [3]) was 0.11 ± 0.015 µM and the Augmenting memory processing [4] was “potent in augmenting memory processing”.

In the case of `CC(C)c1ccc(NC(=O)Oc2ccc3c(c2)C2(C)CCNC2N3)cc1` [MHI tartrate, tartrate acid addition salt of the compound (−)-(3aS)-3a-methyl-1,2,3,3a,8,8a-hexahydropyrrolo-[2,3-b]indol-5-yl N-4′-isopropylphenylcarbamate], the IC50 (human BChE [5]) is reported as 0.001 ± 0.0001 µM, the IC50 (human AChE [6]) is reported as 0.11 ± 0.015 µM and the “Solubility (in words)” value [1] is reported as “highly soluble”. The “Solubility (g per 100 ml Saturated H2O solution at room temperature)” value [1] was 1 g g per 100 ml and the “Cognitive ability (maze navigation)” value [7] was “increase cognitive ability”.

In the case of `CC(C)c1ccc(NC(=O)Oc2ccc3c(c2)[C@]2(C)CCN(CCc4ccccc4)[C@@H]2N3C)cc1` [phenethylcymserine, reference compound], the “Solubility (in words)” value [1] is reported as “insoluble”.
